The text below walks through data of ChEMBL document CHEMBL4842323, “Aromatic Polyketides and Hydroxamate Siderophores from a Marine-Algae-Derived Streptomyces Species” (J Nat Prod, 2021).

Structures are written as SMILES. Counter-ions that a name gives are not always drawn. The source made the active and inactive calls. No cut-off for these calls is given here.

For assay [1], the system named is Staphylococcus aureus. In words: Antibacterial activity against methicillin-resistant Staphylococcus aureus subsp. aureus ATCC43300 assessed as inhibition of bacterial growth incubated for 12 hrs by agar dilution method. In kind it is functional, organism-based.
The subject of the next assay is Candida albicans. In words: Antifungal activity against Candida albicans ATCC10231 assessed as inhibition of fungal growth incubated for 12 hrs by agar dilution method. In kind it is functional, organism-based.
A short description of assay [2]: Binding affinity to Fe3+ assessed as compound-Fe3+ complex formation incubated for 3 hrs by Chrome Azurol S assay.
Assay [3] relates to Staphylococcus aureus. In words: Antibacterial activity against Staphylococcus aureus ATCC6538 assessed as inhibition of bacterial growth incubated for 12 hrs by agar dilution method. In kind it is functional, organism-based.
The next assay concerns Escherichia coli. In words: Antibacterial activity against Escherichia coli ATCC11775 assessed as inhibition of bacterial growth incubated for 12 hrs by agar dilution method. In kind it is functional, organism-based.
Another assay concerns Pseudomonas aeruginosa. In words: Antibacterial activity against Pseudomonas aeruginosa ATCC10145 assessed as inhibition of bacterial growth incubated for 12 hrs by agar dilution method. In kind it is functional, organism-based.
Another assay deals with Nakaseomyces glabratus. In words: Antifungal activity against Candida glabrata ATCC2001 assessed as inhibition of fungal growth incubated for 12 hrs by agar dilution method. In kind it is functional, organism-based.
The next assay deals with B16. As to the kind of experiment: Cytotoxicity against mouse B16 cells assessed as reduction in cell viability incubated for 72 hrs by MTT assay. In kind it is functional, cell-based.

On to `O=C1CCC(=O)N(O)CCCCCNC(=O)CCC(=O)N(O)CCCCCNC(=O)CCC(=O)N(O)CCCCCN1` [NOCARDAMINE], for which the result in the assay with Staphylococcus aureus [1], in the assay on Candida albicans, with Staphylococcus aureus [3], in the assay with Escherichia coli, with Pseudomonas aeruginosa and in the assay with Nakaseomyces glabratus was inactive. Further, the result with B16 was inactive. The EC50 in assay [2] was 22.4 µM.

Regarding `CC(=O)N(O)CCCCCNC(=O)CCC(=O)N(O)CCCCCNC(=O)CCc1ccccc1`, the result in the assay with Staphylococcus aureus [1], in the assay with Candida albicans, in the assay on Staphylococcus aureus [3], in the assay on Escherichia coli, in the assay on Pseudomonas aeruginosa and in the assay on Nakaseomyces glabratus was inactive. In addition, in the assay with B16, the outcome was inactive. For the same compound, the concentration giving a half-maximal response (EC50) in assay [2] turned out to be 12.9 µM.

In the case of `CC(=O)N(O)CCCCCNC(=O)CCC(=O)N(O)CCCCCNC(=O)/C=C/c1ccccc1`, the result with Staphylococcus aureus [1], in the assay with Candida albicans, in the assay with Staphylococcus aureus [3], in the assay on Escherichia coli, in the assay on Pseudomonas aeruginosa and with Nakaseomyces glabratus was inactive. Further, the outcome with B16 was inactive. Besides, the EC50 in assay [2] turned out to be 39.1 µM.

On to `COc1cc([C@@H]2c3cccc(O)c3C(=O)C[C@@]2(O)Cc2ccccc2)oc(=O)c1`, for which the outcome in the assay on Staphylococcus aureus [1], in the assay with Candida albicans, with Staphylococcus aureus [3], in the assay on Escherichia coli, in the assay on Pseudomonas aeruginosa and with Nakaseomyces glabratus was inactive. Also, in the assay with B16, the outcome was inactive.

With `COc1cc(Cc2cccc(O)c2)oc(=O)c1`, the result with Staphylococcus aureus [1], in the assay on Candida albicans, in the assay with Staphylococcus aureus [3], in the assay on Escherichia coli, with Pseudomonas aeruginosa and in the assay with Nakaseomyces glabratus was inactive. For the same compound, the result in the assay on B16 was inactive.

As to `COc1cc(-c2c(O)cccc2-c2ccccc2)oc(=O)c1`, the result in the assay with Staphylococcus aureus [1], in the assay on Candida albicans, with Staphylococcus aureus [3], in the assay on Escherichia coli, in the assay with Pseudomonas aeruginosa and with Nakaseomyces glabratus was inactive. Also, the result in the assay on B16 was inactive.

`COc1cc(Cc2cccc(O)c2C(=O)c2ccccc2)oc(=O)c1`: the result with Staphylococcus aureus [1], in the assay on Candida albicans, with Staphylococcus aureus [3], with Escherichia coli, in the assay on Pseudomonas aeruginosa and in the assay with Nakaseomyces glabratus was inactive. In addition, in the assay with B16, the result was inactive.

As to `CC(=O)N(O)CCCCCNC(=O)CCC(=O)N(O)CCCCCNC(=O)CCC(=O)N(O)CCCCCN` [DEFEROXAMINE MESYLATE], the EC50 in assay [2] amounted to 20.2 µM.
